Laboratory results from US20260250320A1, “LIPIDATED PEPTIDE INHIBITORS OF INTERLEUKIN-23 RECEPTOR” (Janssen Pharmaceutica NV, priority 2023, published 2026).
*1 amine or outer side, *2 acyl side, *3 side chain or, on linkers, in order; H or OH if unused. Where a SMILES comes first, the peptide text is derived from it. Bridges are numbered along the chain shown (N, C = ends). Side-chain parts run from the residue outwards. [ ]: non-standard residue; d: D form. The star is where a group is joined. ξ: configuration not given here. X15 = C[N+](C)(C)CCOCCOCCC(=O)C[C@H](CCCCN[*:1])C(=O)[*:2]; Me3N+(CH2)2O(CH2)2O(CH2)2CO = C[N+](C)(C)CCOCCOCCC(=O)*; PEG12 = NCCOCCOCCOCCOCCOCCOCCOCCOCCOCCOCCOCCOCCC(=O)O; Biotin = O=C1N[C@H]2[C@H](CS[C@H]2CCCCC(=O)*)N1; Trp(7-Me) = Cc1cccc2c(C[C@H](N)C(=O)O)c[nH]c12; C18 diacid = O=C(O)CCCCCCCCCCCCCCCCC(=O)*; γGlu = O=C(O)[C@H](CCC(=O)[*:2])N[*:1]; 2Nal = N[C@@H](Cc1ccc2ccccc2c1)C(=O)O; AEF = NCCOc1ccc(C[C@H](N)C(=O)O)cc1; ξγGlu = O=C(O)C(CCC(=O)[*:2])N[*:1]; X2 = C[N+](C)(C)C[C@@H](CC(=O)O)N*; αMeT = C[C@@H](O)[C@](C)(N)C(=O)O; 3Pal = N[C@@H](Cc1cccnc1)C(=O)O; Lys(Me) = CNCCCC[C@H](N)C(=O)O; NMeK = CN[C@@H](CCCCN)C(=O)O; PEG4 = NCCOCCOCCOCCOCCC(=O)O; Pen = CC(C)(S)[C@H](N)C(=O)O; Suc = O=C(CCC(=O)[*:2])[*:1]; Thp = NC1(C(=O)O)CCOCC1; X1 = C[N+](C)(C)CCCCC*; ξN = NC(=O)CC(N)C(=O)O; AEEA = NCCOCCOCC(=O)O; ξK = NCCCCC(N)C(=O)O; Sar = CNCC(=O)O

How the values were obtained:
[1] = molecular target: T1, IL-23R (Homo sapiens, UniProt Q5VWK5); experiment: IL23R Reporter Assay; type: cell-based; conditions: HEK293 cells containing IL-23R, IL-12Rβ1 and STAT-inducible firefly luciferase reporter; 10 ng/mL IL-23 (EC90); 5 h
T1 construct: HEK293 cells containing IL-23R, IL-12Rβ1 and a firefly luciferase reporter gene driven by a STAT-inducible promoter (Promega); host or cells: HEK293
T1 sequence (Q5VWK5 24-629): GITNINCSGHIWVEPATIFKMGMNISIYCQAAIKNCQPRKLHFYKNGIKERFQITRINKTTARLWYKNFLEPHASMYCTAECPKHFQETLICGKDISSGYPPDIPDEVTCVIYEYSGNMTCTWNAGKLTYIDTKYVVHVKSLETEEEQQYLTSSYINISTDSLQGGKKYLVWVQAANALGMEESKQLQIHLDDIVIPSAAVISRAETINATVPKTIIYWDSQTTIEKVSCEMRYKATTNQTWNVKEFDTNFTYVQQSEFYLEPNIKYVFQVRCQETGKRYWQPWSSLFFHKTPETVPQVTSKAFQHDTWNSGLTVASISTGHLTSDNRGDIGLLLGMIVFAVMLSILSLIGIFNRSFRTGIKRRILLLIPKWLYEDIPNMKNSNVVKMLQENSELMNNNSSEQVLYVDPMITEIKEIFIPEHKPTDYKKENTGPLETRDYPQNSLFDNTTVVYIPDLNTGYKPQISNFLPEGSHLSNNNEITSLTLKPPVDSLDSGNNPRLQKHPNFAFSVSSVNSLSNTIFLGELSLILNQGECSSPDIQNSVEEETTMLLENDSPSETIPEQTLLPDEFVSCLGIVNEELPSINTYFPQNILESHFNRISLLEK
Summary of the method: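 HEK293 cells carrying IL-23R, IL-12Rβ1 and a STAT-driven firefly luciferase reporter (4000 cells/well) received compound, then 10 ng/mL IL-23 solution (EC90), and were incubated for 5 h at 37° C. BioGlo luminescence was normalised to IL-23 alone (0%) and 30 μM control inhibitor (100%). IC50 came from a 4-parameter Hill fit.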

[2] = system: IL-23-stimulated phosphorylated STAT3 in peripheral blood mononuclear cells (PBMCs); experiment: PBMC pSTAT3 Assay; type: cell-based; conditions: PBMCs from healthy donors; 30 min preincubation with peptide; IL-23 5 ng/mL for 30 min; phospho-STAT3 by MSD
Summary of the method: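 Healthy-donor PBMCs expanded 4 days on anti-CD3 with 100 ng/mL IL-1β, starved ~4 h in RPMI-0.1% BSA, preincubated 30 min with peptide, then stimulated 30 min at 37 °C with 5 ng/mL IL-23. Lysate pSTAT3 measured by MSD phospho-STAT panel; IC50 derived.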

| IC50 [1] | SMILES | IC50 [2] |
| --- | --- | --- |
| < 50 nM | CC(=O)NCCCC[C@@H]1NC(=O)[C@H](Cc2c[nH]c3c(C)cccc23)NC(=O)[C@H]([C@@H](C)O)NC(=O)[C@H](CC(N)=O)NC(=O)[C@@H](NC(=O)[C@@H](CCCNC(=N)N)NC(C)=O)C(C)(C)SSC(C)(C)[C@@H](C(=O)N[C@@H](Cc2ccc(OCCN)cc2)C(=O)N[C@@H](Cc2ccc3ccccc3c2)C(=O)NC2(C(=O)N[C@@H](CCCCNC(=O)COCCOCCNC(=O)COCCOCCNC(=O)CC[C@H](NC(=O)CCCCCCCCCCCCCCCCC(=O)O)C(=O)O)C(=O)N[C@@H](CC(N)=O)C(=O)N[C@@H](Cc3cccnc3)C(=O)N(C)[C@@H](CCCCNC(=O)CCC(=O)N[C@H](CC(=O)O)C[N+](C)(C)C)C(N)=O)CCOCC2)NC1=O [compound 21, MeCO-r-Pen(3)-N-T-7MeW-K(Ac)-Pen(3)-AEF-2Nal-THP-K(PEG2PEG2gEC18OH)-N-3Pya-NMeK(d)-CONH2] (Ac-[dR][Pen]NT[Trp(7-Me)]K(Ac)[Pen][AEF][2Nal][Thp]K([AEEA-AEEA-γGlu-C18 diacid])N[3Pal][NMeK]([Suc-X2])-NH2; disulfide 2-7) | < 0.5 nM |
| 50 to 500 nM | Cc1cccc2c(C[C@@H]3NC(=O)[C@H]([C@@H](C)O)NC(=O)[C@H](CC(N)=O)NC(=O)[C@@H](NC(=O)[C@@H](CCCNC(=N)N)NC(=O)CCC(=O)N[C@H](CC(=O)O)C[N+](C)(C)C)C(C)(C)SSC(C)(C)[C@@H](C(=O)N[C@@H](Cc4ccc(OCCN)cc4)C(=O)N[C@@H](Cc4ccc5ccccc5c4)C(=O)NC4(C(=O)N[C@@H](CCC(=O)O)C(=O)N[C@@H](CC(N)=O)C(=O)N[C@@H](Cc5cccnc5)C(=O)N(C)CC(N)=O)CCOCC4)NC(=O)[C@H](CCCCNC(=O)COCCOCCNC(=O)COCCOCCNC(=O)CC[C@H](NC(=O)CCCCCCCCCCCCCCCCC(=O)O)C(=O)O)NC3=O)c[nH]c12 [compound 19, MeCO-r-Pen(3)-N-T-7MeW-K(PEG2PEG2gEC18OH)-Pen(3)-AEF-2Nal-THP-E-N-3Pya-NMeK(d)-CONH2] ({X2-Suc}-[dR][Pen]NT[Trp(7-Me)]K([AEEA-AEEA-γGlu-C18 diacid])[Pen][AEF][2Nal][Thp]EN[3Pal][Sar]-NH2; disulfide 2-7) | < 0.5 nM |
| < 50 nM | CC(=O)NCCCCC1NC(=O)[C@H](Cc2c[nH]c3c(C)cccc23)NC(=O)[C@H]([C@@H](C)O)NC(=O)[C@H](CC(N)=O)NC(=O)[C@@H](NC(=O)[C@H](CCCCNC(=O)COCCOCCNC(=O)COCCOCCNC(=O)CC[C@H](NC(=O)CCCCCCCCCCCCCCCCC(=O)O)C(=O)O)NC(C)=O)C(C)(C)SSC(C)(C)[C@@H](C(=O)N[C@@H](Cc2ccc(OCCN)cc2)C(=O)N[C@@H](Cc2ccc3ccccc3c2)C(=O)NC2(C(=O)N[C@@H](CCCCNC(C)=O)C(=O)N[C@@H](CC(N)=O)C(=O)N[C@@H](Cc3cccnc3)C(=O)N(C)CC(N)=O)CCOCC2)NC1=O (stereo partly drawn) [compound 39, MeCO-K(PEG2PEG2gEC18OH)-Pen(3)-N-T-7MeW-K(Ac)-Pen(3)-AEF-2Nal-THP-K(Ac)-N-3Pya-Sar-CONH2] (Ac-K([AEEA-AEEA-γGlu-C18 diacid])[Pen]NT[Trp(7-Me)][ξK](Ac)[Pen][AEF][2Nal][Thp]K(Ac)N[3Pal][Sar]-NH2; disulfide 2-7) | < 0.5 nM |
| < 50 nM | CC(=O)N[C@H](CCCNC(=N)N)C(=O)N[C@@H]1C(=O)N[C@@H](CC(N)=O)C(=O)N[C@@H]([C@@H](C)O)C(=O)N[C@@H](Cc2c[nH]c3c(C)cccc23)C(=O)N[C@@H](CCCCN(C)C(=O)CCOCCOCC[N+](C)(C)C)C(=O)N[C@H](C(=O)N[C@@H](Cc2ccc(OCCN)cc2)C(=O)N[C@@H](Cc2ccc3ccccc3c2)C(=O)NC2(C(=O)N[C@@H](CCC(=O)O)C(=O)N[C@@H](CC(N)=O)C(=O)N[C@@H](Cc3cccnc3)C(=O)N(C)CC(=O)N[C@@H](CCCCNC(=O)COCCOCCNC(=O)COCCOCCNC(=O)CC[C@H](NC(=O)CCCCCCCCCCCCCCCCC(=O)O)C(=O)O)C(N)=O)CCOCC2)C(C)(C)SSC1(C)C [compound 70, MeCO-r-Pen(3)-N-T-7MeW-K(NMecPEG3a)-Pen(3)-AEF-2Nal-THP-E-N-3Pya-Sar-K(PEG2PEG2C18OH)-CONH2] (Ac-[dR][Pen]NT[Trp(7-Me)][Lys(Me)](Me3N+(CH2)2O(CH2)2O(CH2)2CO)[Pen][AEF][2Nal][Thp]EN[3Pal][Sar]K([AEEA-AEEA-γGlu-C18 diacid])-NH2; disulfide 2-7) | < 0.5 nM |
| < 50 nM | CC(=O)NCCCC[C@@H]1NC(=O)[C@H](Cc2c[nH]c3c(C)cccc23)NC(=O)[C@](C)([C@@H](C)O)NC(=O)C(CC(N)=O)NC(=O)[C@@H](NC(=O)[C@@H](CCCNC(=N)N)NC(C)=O)C(C)(C)SSC(C)(C)[C@@H](C(=O)N[C@@H](Cc2ccc(OCCN)cc2)C(=O)N[C@@H](Cc2ccc3ccccc3c2)C(=O)NC2(C(=O)N[C@@H](CCCCNC(=O)CCOCCOCCOCCOCCNC(=O)CCCC[C@@H]3SC[C@@H]4NC(=O)N[C@@H]43)C(=O)N[C@@H](CC(N)=O)C(=O)N[C@@H](Cc3cccnc3)C(=O)N(C)CC(=O)N[C@@H](CCCCNC(=O)COCCOCCNC(=O)COCCOCCNC(=O)CC[C@H](NC(=O)CCCCCCCCCCCCCCCCC(=O)O)C(=O)O)C(N)=O)CCOCC2)NC1=O (stereo partly drawn) [compound 56, MeCO-r-Pen(3)-N-T-7MeW-K(Ac)-Pen(3)-AEF-2Nal-THP-K(BiotinPEG4)-N-3Pya-Sar-K(PEG2PEG2gEC18OH)-CONH2] (Ac-[dR][Pen][ξN][αMeT][Trp(7-Me)]K(Ac)[Pen][AEF][2Nal][Thp]K([PEG4-Biotin])N[3Pal][Sar]K([AEEA-AEEA-γGlu-C18 diacid])-NH2; disulfide 2-7) | < 0.5 nM |
| < 50 nM | CC(=O)NCCCC[C@@H]1NC(=O)[C@H](Cc2c[nH]c3c(C)cccc23)NC(=O)[C@H]([C@@H](C)O)NC(=O)[C@H](CC(N)=O)NC(=O)[C@@H](NC(=O)[C@@H](CCCCNC(=O)COCCOCCNC(=O)COCCOCCNC(=O)CCC(NC(=O)CCCCCCCCCCCCCCCCC(=O)O)C(=O)O)NC(C)=O)C(C)(C)SSC(C)(C)[C@@H](C(=O)N[C@@H](Cc2ccc(OCCN)cc2)C(=O)N[C@@H](Cc2ccc3ccccc3c2)C(=O)NC2(C(=O)N[C@@H](CCC(=O)O)C(=O)N[C@@H](CC(N)=O)C(=O)N[C@@H](Cc3cccnc3)C(=O)N(C)[C@@H](CCCCNC(=O)CCC(=O)N[C@H](CC(=O)O)C[N+](C)(C)C)C(N)=O)CCOCC2)NC1=O (some centres unmarked) [compound 42, MeCO-k(PEG2PEG2gEC18OH)-Pen(3)-N-T-7MeW-K(Ac)-Pen(3)-AEF-2Nal-THP-E-N-3Pya-NMeK(d)-CONH2] (Ac-[dK]([AEEA-AEEA-ξγGlu-C18 diacid])[Pen]NT[Trp(7-Me)]K(Ac)[Pen][AEF][2Nal][Thp]EN[3Pal][NMeK]([Suc-X2])-NH2; disulfide 2-7) | < 0.5 nM |
| < 50 nM | CC(=O)N(C)CCCC[C@@H]1NC(=O)[C@H](Cc2c[nH]c3c(C)cccc23)NC(=O)[C@H]([C@@H](C)O)NC(=O)[C@H](CC(=O)N(C)C)NC(=O)[C@@H](NC(=O)[C@@H](CCCCNC(=O)CCOCCOCCOCCOCCOCCOCCOCCOCCOCCOCCOCCOCCNC(=O)CC[C@H](NC(=O)CCCCCCCCCCCCCCCCC(=O)O)C(=O)O)CC(=O)CCOCCOCC[N+](C)(C)C)C(C)(C)SSC(C)(C)[C@@H](C(=O)N[C@@H](Cc2ccc(OCCCCC[N+](C)(C)C)cc2)C(=O)N[C@@H](Cc2ccc3ccccc3c2)C(=O)NC2(C(=O)N[C@@H](CCCCN(C)C(C)=O)C(=O)N[C@@H](CC(N)=O)C(=O)N[C@@H](Cc3cccnc3)C(=O)N(C)CC(=O)N(C)C)CCOCC2)NC1=O [compound 132, cPEG3aCO-k(PEG12gEC18OH)-Pen(3)-N(N(Me)2)-T-7MeW-K(NMeAc)-Pen(3)-TMAPF-2Nal-THP-K(NMeAc)-N-3Pya-Sar-CON(Me)2] ({C18 diacid-γGlu-PEG12}-[X15][Pen]D(NMe2)T[Trp(7-Me)][Lys(Me)](Ac)[Pen]Y(X1)[2Nal][Thp][Lys(Me)](Ac)N[3Pal][Sar]-NMe2; disulfide 2-7) | < 0.5 nM |
